# Patent US9227971B2, “Pyrazolo[1,5-a]pyrimidine compounds as mTOR inhibitors” (Merck Sharp & Dohme Corp., priority 2010, dated 2016)
# Tested on: phosphorylated AKT Ser473 (pAKT S473), mTORC2 activity, PC3 cells
# Experiment: mTOR target engagement assay, immunofluorescent cell-based, pAKT S473 readout (mTORC2 activity)
# Conditions: Homo sapiens, PC-3, PC3 cells, compound treatment ninety minutes at 37° C.
# Method: The target engagement of mTOR kinase inhibitors was evaluated using an immunofluorescent cell-based assay. In this assay, inhibition of mTORC1 activity was measured by the reduction in the level of phosphorylated 4E-BP1^[…] (p4E-BP1 Thr37/46), and inhibition of mTORC2 activity was measured by the reduction of phosphorylated AKT^Ser473 (pAKT S473).
# PC3 cells (prostate tumor cell-line that contains a mutation in the tumor suppressor PTEN, that promotes the phosphorylation and activation of AKT and 4E-BP1) were used in the immunofluorescence assay. […] PC3 cells were then treated with 40 μl of the serially diluted test compounds (in 5% fetal bovine serum, F12 medium containing 0.25% DMSO) for ninety minutes at 37° C. The test compound solution was removed, and the plates were washed gently two times with 25 μl phosphate buffered saline (PBS). […] 5% Goat serum in PBS/0.3% Triton was used to block non-specific binding (60 minutes).
# The primary antibodies targeting pAKT S473 and p4E-BP1 Thr37/46 were diluted into PBS/0.3% Triton and incubated with the cells overnight at 4° C. […] Plates were washed three times with PBS/0.1% Tween 20 before adding the secondary antibody at a 1:200 dilution.
# Finally, the plates were washed three times with PBS/0.1% Tween 20 and the fluorescent intensity was read using an Analyst HT from Molecular Devices.
row,Compound,IC50
1,"CC(=O)c1c([C@@H]2C[C@H]3CC[C@@H](C2)N3C(=O)[C@H](O)CO)nc2c(-c3ccc(-c4ccccc4)nc3)cnn2c1N [Compound 1.1.3, (R)-1-((1R,3S,5S)-3-(6-acetyl-7-amino-3-(6-phenylpyridin-3-yl)pyrazolo[1,5-a]pyrimidin-5-yl)-8-azabicyclo[3.2.1]octan-8-yl)-2,3-dihydroxypropan-1-one]",100 to 1000 nM
2,"CC(=O)c1c([C@@H]2C[C@H]3CC[C@@H](C2)N3C(=O)C(C)(C)O)nc2c(-c3ccc(-c4ccccc4)nc3)cnn2c1N [Compound 1.1.6, 1-((1R,3s,5S)-3-(6-acetyl-7-amino-3-(6-phenylpyridin-3-yl)pyrazolo[1,5-a]pyrimidin-5-yl)-8-azabicyclo[3.2.1]octan-8-yl)-2-hydroxy-2-methylpropan-1-one]",100 to 1000 nM
3,"CC(=O)c1c([C@@H]2C[C@H]3CC[C@@H](C2)N3C(=O)[C@@H](C)O)nc2c(-c3ccc(-c4nccs4)nc3)cnn2c1N [Compound 1.1.34, (R)-1-((1R,3S,5S)-3-(6-acetyl-7-amino-3-(6-(thiazol-2-yl)pyridin-3-yl)pyrazolo[1,5-a]pyrimidin-5-yl)-8-azabicyclo[3.2.1]octan-8-yl)-2-hydroxypropan-1-one]",100 to 1000 nM
4,"CC(=O)c1c([C@@H]2C[C@H]3CC[C@@H](C2)N3C(=O)C(C)(C)O)nc2c(-c3ccc(-c4nccs4)nc3)cnn2c1N [Compound 1.1.35, 1-((1R,3s,5S)-3-(6-acetyl-7-amino-3-(6-(thiazol-2-yl)pyridin-3-yl)pyrazolo[1,5-a]pyrimidin-5-yl)-8-azabicyclo[3.2.1]octan-8-yl)-2-hydroxy-2-methylpropan-1-one]",100 to 1000 nM
5,"CC(=O)c1c([C@@H]2C[C@H]3CC[C@@H](C2)N3C(=O)c2ccn[nH]2)nc2c(-c3ccc(-c4ccc(F)cc4)nc3)cnn2c1N [Compound 1.1.157, 1-(5-((1R,3s,5S)-8-(1H-pyrazole-5-carbonyl)-8-azabicyclo[3.2.1]octan-3-yl)-7-amino-3-(6-(4-fluorophenyl)pyridin-3-yl)pyrazolo[1,5-a]pyrimidin-6-yl)ethanone]",1 to 100 nM
6,"CC(=O)c1c([C@@H]2C[C@H]3CC[C@@H](C2)N3C(=O)[C@@H](C)O)nc2c(-c3ccc(-c4ccc(F)cc4)nc3)cnn2c1N [Compound 1.1.158, (R)-1-((1R,3S,5S)-3-(6-acetyl-7-amino-3-(6-(4-fluorophenyl)pyridin-3-yl)pyrazolo[1,5-a]pyrimidin-5-yl)-8-azabicyclo[3.2.1]octan-8-yl)-2-hydroxypropan-1-one]",100 to 1000 nM
7,"Cc1ccc(-c2cnn3c(N)c(C4CC4)c([C@@H]4C[C@H]5CC[C@@H](C4)N5C(=O)c4nnc[nH]4)nc23)cn1 [Compound 4.16, ((1R,3s,5S)-3-(7-amino-6-cyclopropyl-3-(6-methylpyridin-3-yl)pyrazolo[1,5-a]pyrimidin-5-yl)-8-azabicyclo[3.2.1]octan-8-yl)(4H-1,2,4-triazol-3-yl)methanone]",100 to 1000 nM
8,"Cn1cnc(-c2ccc(-c3cnn4c(N)c(C5CC5)c([C@@H]5C[C@H]6CC[C@@H](C5)N6C(=O)c5nnc[nH]5)nc34)cn2)c1 [Compound 4.23, ((1R,3a,5S)-3-(7-amino-6-cyclopropyl-3-(6-(1-methyl-1H-imidazol-4-yl)pyridin-3-yl)pyrazolo[1,5-a]pyrimidin-5-yl)-8-azabicyclo[3.2.1]octan-8-yl)(4H-1,2,4-triazol-3-yl)methanone]",1000 to 10000 nM
9,"CC(=O)c1c([C@@H]2C[C@H]3CC[C@@H](C2)N3C(=O)c2cnn[nH]2)nc2c(-c3ccc(C4(O)CCC4)nc3)cnn2c1N [Compound 7.19, 1-(5-((1R,3s,5S)-8-(1H-1,2,3-triazole-5-carbonyl)-8-azabicyclo[3.2.1]octan-3-yl)-7-amino-3-(6-(1-hydroxycyclobutyl)pyridin-3-yl)pyrazolo[1,5-a]pyrimidin-6-yl)ethanone]",100 to 1000 nM

# Same assay, conditions: Homo sapiens, PC-3, Table 3-1; PC3 cells
row,Compound,IC50
1,"CS(=O)(=O)c1c([C@@H]2C[C@H]3CC[C@@H](C2)N3C(=O)c2ccn[nH]2)nc2c(-c3ccc(-c4ccc(F)cc4)nc3)cnn2c1N [Compound 3.121, ((1R,3s,5S)-3-(7-amino-3-(6-(4-fluorophenyl)pyridin-3-yl)-6-(methylsulfonyl)pyrazolo[1,5-a]pyrimidin-5-yl)-8-azabicyclo[3.2.1]octan-8-yl)(1H-pyrazol-5-yl)methanone]",1 to 100 nM
2,"C[C@@H](O)C(=O)N1[C@@H]2CC[C@H]1C[C@H](c1nc3c(-c4ccc(-c5ccc(F)cc5)nc4)cnn3c(N)c1S(C)(=O)=O)C2 [Compound 3.122, (R)-1-((1R,3S,5S)-3-(7-amino-3-(6-(4-fluorophenyl)pyridin-3-yl)-6-(methylsulfonyl)pyrazolo[1,5-a]pyrimidin-5-yl)-8-azabicyclo[3.2.1]octan-8-yl)-2-hydroxypropan-1-one]",100 to 1000 nM

# Same assay, conditions: Homo sapiens, PC-3, Table 6-1; PC3 cells
row,Compound,IC50
1,"CC(=O)c1c([C@@H]2C[C@H]3CC[C@@H](C2)N3C(=O)[C@H](C)O)nc2c(-c3ccc(-c4ncc[nH]4)nc3)cnn2c1N [Compound 6.8, (S)-1-((1R,3R,5S)-3-(3-(6-(1H-imidazol-2-yl)pyridin-3-yl)-6-acetyl-7-aminopyrazolo[1,5-a]pyrimidin-5-yl)-8-azabicyclo[3.2.1]octan-8-yl)-2-hydroxypropan-1-one]",1 to 100 nM
2,"CC(=O)OCC(=O)N1[C@@H]2CC[C@H]1C[C@H](c1nc3c(-c4ccc(-c5ncc[nH]5)nc4)cnn3c(N)c1C(C)=O)C2 [Compound 6.9, 2-((1R,3s,5S)-3-(3-(6-(1H-imidazol-2-yl)pyridin-3-yl)-6-acetyl-7-aminopyrazolo[1,5-a]pyrimidin-5-yl)-8-azabicyclo[3.2.1]octan-8-yl)-2-oxoethyl acetate]",100 to 1000 nM
3,"COCCOCC(=O)N1[C@@H]2CC[C@H]1C[C@H](c1nc3c(-c4ccc(-c5ncc[nH]5)nc4)cnn3c(N)c1C(C)=O)C2 [Compound 6.13, 1-((1R,3s,5S)-3-(3-(6-(1H-imidazol-2-yl)pyridin-3-yl)-6-acetyl-7-aminopyrazolo[1,5-a]pyrimidin-5-yl)-8-azabicyclo[3.2.1]octan-8-yl)-2-(2-methoxyethoxy)ethanone]",1 to 100 nM
4,"CC(=O)c1c([C@@H]2C[C@H]3CC[C@@H](C2)N3C(=O)c2cc(N)n[nH]2)nc2c(-c3ccc(-c4ncc[nH]4)nc3)cnn2c1N [Compound 6.17, 1-(3-(6-(1H-imidazol-2-yl)pyridin-3-yl)-7-amino-5-((1R,3s,5S)-8-(3-amino-1H-pyrazole-5-carbonyl)-8-azabicyclo[3.2.1]octan-3-yl)pyrazolo[1,5-a]pyrimidin-6-yl)ethanone]",1 to 100 nM
5,"CC(=O)c1c([C@@H]2C[C@H]3CC[C@@H](C2)N3C(=O)CO)nc2c(-c3cnc(-c4ncc[nH]4)c(F)c3)cnn2c1N [Compound 6.28, 1-((1R,3s,5S)-3-(6-acetyl-7-amino-3-(5-fluoro-6-(1H-imidazol-2-yl)pyridin-3-yl)pyrazolo[1,5-a]pyrimidin-5-yl)-8-azabicyclo[3.2.1]octan-8-yl)-2-hydroxyethanone]",1 to 100 nM
6,"Nc1c(C2CC2)c([C@@H]2C[C@H]3CC[C@@H](C2)N3C(=O)CO)nc2c(-c3cnc(-c4ncc[nH]4)c(F)c3)cnn12 [Compound 6.29, 1-((1R,3s,5S)-3-(7-amino-6-cyclopropyl-3-(5-fluoro-6-(1H-imidazol-2-yl)pyridin-3-yl)pyrazolo[1,5-a]pyrimidin-5-yl)-8-azabicyclo[3.2.1]octan-8-yl)-2-hydroxyethanone]",100 to 1000 nM
7,"CC(=O)c1c([C@@H]2C[C@H]3CC[C@@H](C2)N3C(=O)CO)nc2c(-c3cnc(-c4ncc[nH]4)c(C)c3)cnn2c1N [Compound 6.33, 1-((1R,3s,5S)-3-(3-(6-(1H-imidazol-2-yl)-5-methylpyridin-3-yl)-6-acetyl-7-aminopyrazolo[1,5-a]pyrimidin-5-yl)-8-azabicyclo[3.2.1]octan-8-yl)-2-hydroxyethanone]",1000 to 10000 nM
8,"CC(=O)c1c([C@@H]2C[C@H]3CC[C@@H](C2)N3C(=O)C(C)(C)CO)nc2c(-c3ccc(-c4ncc[nH]4)nc3)cnn2c1N [Compound 6.45, 1-((1R,3s,5S)-3-(3-(6-(1H-imidazol-2-yl)pyridin-3-yl)-6-acetyl-7-aminopyrazolo[1,5-a]pyrimidin-5-yl)-8-azabicyclo[3.2.1]octan-8-yl)-3-hydroxy-2,2-dimethylpropan-1-one]",100 to 1000 nM

# Same assay, conditions: Table 3-1; PC3 cells
row,Compound,IC50
1,"CS(=O)(=O)c1c([C@@H]2C[C@H]3CC[C@@H](C2)N3C(=O)CO)nc2c(-c3ccc(-c4ccc(F)cc4)nc3)cnn2c1N [Compound 3.118, 1-((1R,3a,5S)-3-(7-amino-3-(6-(4-fluorophenyl)pyridin-3-yl)-6-(methylsulfonyl)pyrazolo[1,5-a]pyrimidin-5-yl)-8-azabicyclo[3.2.1]octan-8-yl)-2-hydroxyethanone]",100 to 1000 nM

# Same assay, conditions: Table 7-2; PC3 cells
row,Compound,IC50
1,"CS(=O)(=O)c1c([C@@H]2C[C@H]3CC[C@@H](C2)N3C(=O)CO)nc2c(-c3ccc(C4(O)CCC4)nc3)cnn2c1N [Compound 7.28, 1-((1R,3s,5S)-3-(7-amino-3-(6-(1-hydroxycyclobutyl)pyridin-3-yl)-6-(methylsulfonyl)pyrazolo[1,5-a]pyrimidin-5-yl)-8-azabicyclo[3.2.1]octan-8-yl)-2-hydroxyethanone]",100 to 1000 nM
